Experimental findings from paper PMC5334615, “Induction of Diverse Bioactive Secondary Metabolites from the Mangrove Endophytic Fungus Trichoderma sp. (Strain 307) by Co-Cultivation with Acinetobacter johnsonii (Strain B2)” (Marine Drugs, 2017) are described below.

Data set [1] relates to rat pituitary adenoma GH3 cell lines. Briefly: MTT cytotoxicity assay, GH3 cells. Type of data set: cell-based. The note with it: MTT method, read-out: Cytotoxicity IC50 against GH3 cell lines. On the procedure:
(§1) The cytotoxic activities against rat pituitary adenoma MMQ and GH3 cell lines were evaluated by MTT assay following the previous process. Briefly, MMQ and GH3 cell lines were seeded in 96-well plates (Corning, New York, NY, USA) at a density of 5 × 10^4 cells per well. Then, 10 μL of MTT reagent was added to each well and incubated at 37 °C with 5% CO2 for 4 h. Subsequently, 100 μL of acidified isopropyl alcohol was added. Then the OD value was measured at 450 nm using a microplate reader and the cell proliferation rate relative to the control was calculated. The IC50 was analyzed by SPSS 13.0 (SPSS, Chicago, IL, USA). Rat normal pituitary cells were used as a positive control.
Background: Formazan colour is commonly taken as a measure of viable cells.

Data set [2] concerns rat prolactinoma MMQ cell lines. Briefly: MTT cytotoxicity assay, MMQ cells. The note with it: MTT method, read-out: Cytotoxicity IC50 against MMQ cell lines. Type of data set: cell-based. On the procedure:
as §1

The nature of data set [3]: MTT cytotoxicity assay, rat normal pituitary cells. Format: cell-based. The note with it: rat, rat normal pituitary cells (RPC); MTT method; normal cells used as control; read-out: Cytotoxicity IC50 against rat normal pituitary cells (RPC). The protocol: as §1
The subject of data set [4] is rat normal pituitary cells (RPC). The data set is described as follows: MTT cytotoxicity assay, rat normal pituitary cells. Format: cell-based. The note with it: tumour cell IC50 compared with RPC IC50. The protocol:
as §1

The next data set deals with α-glucosidase (Saccharomyces cerevisiae, UniProt P53341). Type of data set: biochemical. The protocol:
The assay of α-glucosidase inhibitory activity was carried out according to the reported method, with minor modifications. All of the assays were performed under 0.01 M potassium phosphate buffer (pH 7). Enzyme solutions were prepared to give 2.0 Units/mL in 2 mL buffer solution. Test samples were dissolved in dimethyl sulphoxide (DMSO) to give an initial concentration of 4000 μM/L. One-hundred fifty-five microliters of phosphate buffer, 10 μL of test samples, and 10 μL of diluted enzyme solution were mixed in each well of a 96-well microtiter plate. After 20 min incubation at 37 °C, 25 μL of substrate (p-nitrophenyl-α-D-glucopyranoside, 1.5 mg/mL) was added to each well to begin the enzymatic reaction. The reaction was monitored spectrophotometrically by measuring the absorbance at 410 nm for a 1 min interval. […] All measurements were done in triplicate from two independent experiments. The reported IC50 was the average value of two independent experiments.

Chain of α-glucosidase (P53341 whole entry): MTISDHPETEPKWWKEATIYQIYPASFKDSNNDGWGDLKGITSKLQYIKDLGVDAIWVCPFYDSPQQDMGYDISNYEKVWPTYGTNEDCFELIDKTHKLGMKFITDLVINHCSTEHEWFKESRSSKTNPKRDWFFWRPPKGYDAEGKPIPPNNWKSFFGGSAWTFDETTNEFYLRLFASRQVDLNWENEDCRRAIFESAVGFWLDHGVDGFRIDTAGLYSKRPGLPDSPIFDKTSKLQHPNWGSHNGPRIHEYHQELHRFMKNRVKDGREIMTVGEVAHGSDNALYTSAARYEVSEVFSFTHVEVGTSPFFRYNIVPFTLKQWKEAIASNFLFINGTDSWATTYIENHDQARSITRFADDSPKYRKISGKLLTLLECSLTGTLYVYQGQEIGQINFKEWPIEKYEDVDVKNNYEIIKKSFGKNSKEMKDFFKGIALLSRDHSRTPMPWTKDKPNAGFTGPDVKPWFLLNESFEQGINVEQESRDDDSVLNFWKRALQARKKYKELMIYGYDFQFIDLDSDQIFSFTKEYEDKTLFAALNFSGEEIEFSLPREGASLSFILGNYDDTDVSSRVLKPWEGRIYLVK

For `C[C@H]1CCC(=O)CCCCc2cc(O)cc(O)c2C(=O)O1` [Compound 8, (3S)-6-oxo-de-O-methyllasiodiplodin], the IC50 in data set [1] came to 21.4 µM; in data set [2], 13.6 µM; in data set [3], 143 µM. In addition, in data set [4], the “Cytotoxicity against GH3/MMQ cells, fold better than against RPC cells” value is recorded as “seven-fold”.
Regarding `C[C@@H]1CCCCCCCc2cc(O)cc(O)c2C(=O)O1` [Compound 9, (3R)-de-O-methyllasiodiplodin], the IC50 in data set [1] worked out at 6.44 µM; in data set [2], 6.58 µM; in data set [3] it was 6.94 µM.
In the case of `COc1cc(O)cc2c1C(=O)O[C@H](C)CCCCC/C=C/2` [Compound 16, (E)-9-etheno-lasiodiplodin], the “α-Glucosidase inhibitory effect, fold better than acarbose” value at α-glucosidase is given as “seven-fold”.
Take `C[C@@H]1CCCCCCCC(=O)Cc2cc(O)cc(O)c2C(=O)O1` [Compound 17, (3R)-nordinone]: the “α-Glucosidase inhibitory effect, fold better than acarbose” value at α-glucosidase is “seven-fold”. Moreover, the results for the IC50 in data set [1], in data set [2] and in data set [3] were 12.3 µM, 10.1 µM and 100 µM, respectively. Also, the “Cytotoxicity against GH3/MMQ cells, fold better than against RPC cells” value in data set [4] is “ten-fold”.

What is called IC50 is the midpoint of a concentration-inhibition curve.
